This is an account of results in paper PMC6153936, “Bisarylureas Based on 1H-Pyrazolo[3,4-d]pyrimidine Scaffold as Novel Pan-RAF Inhibitors with Potent Anti-Proliferative Activities: Structure-Based Design, Synthesis, Biological Evaluation and Molecular Modelling Studies” (Molecules : A Journal of Synthetic Chemistry and Natural …, 2017).

The structures appear in SMILES notation.

The nature of one series: in vitro. To be noted: dog.
A further series addresses T1, BRAF^V600E (Homo sapiens, UniProt P15056, V600E).
T1 construct: purchased Life Technologies
In words: BRAF^V600E kinase inhibition, Z'-LYTE. Format: biochemical. To be noted: for inhibition at 0.1 µM: 100 nM; for IC50: ten concentrations 1000 to 0.0508 nM, two independent experiments. How it is done: The experiments were performed according to the instructions of the manufacturer, and single point concentration testing with two independent data points (n = 2). […] The IC50 values were calculated from the inhibition curves from two separate experiments.

The next series relates to PC-3. In words: MTT anti-proliferative assay, PC-3. Format: cell-based, human. To be noted: Homo sapiens, PC-3; MTT, 48 h.
Another series deals with HT-29. The series is described as follows: MTT anti-proliferative assay, HT-29. Format: cell-based. To be noted: Homo sapiens, 48 h.
A further series deals with A549. In words: MTT anti-proliferative assay, A549. The class given is cell-based, human. The conditions noted are these: Homo sapiens, A549; MTT, 48 h.
The next series has as its system A375. In words: MTT anti-proliferative assay, A375. The class given is cell-based. The conditions noted are these: Homo sapiens, A-375, 48 h.
Series [1] is described as follows: MTT cytotoxic assay, normal cell line MDCK. The conditions noted are these: dog, MDCK cells (normal cell line).
Procedure: (§2) All cell lines were purchased from Cell Bank of China Science Academy (Shanghai, China). All chemicals and solvents were purchased from Sigma-Aldrich (St. Louis, MO, USA) or Gibco (Gibco BRL, Grand Island, NY, USA). The PC-3 and A375 cell lines was maintained in Dulbecco's modified eagle (DEME) medium supplement with 10% fetal bovine serum (FBS) and 1% penicillin–streptomycin. The others were cultured in Roswell Park Memorial Institute (RPMI) 1640 medium supplement with 10% fetal bovine serum (FBS) and 1% penicillin–streptomycin. Approximately 5 × 10^3 cells, suspended in medium, were plated into each well of a 96-well plate and grown at 37 °C in a humidified atmosphere with 5% CO2 for 24 h. The following day, various concentrations of tested compounds were added to the culture medium and incubated for 48 h. Fresh MTT was added to each well at the terminal concentration of 5 mg/mL in phosphate buffered saline (PBS), and incubated with cells at 37 °C for 4 h. The formazan crystals in each well were dissolved in 150 μL DMSO, and the absorbency at 570 nm was measured with an enzyme-linked immunosorbent assay plate reader. All of the compounds were tested three times in each of the cell lines.
Another series addresses EPHA2 (Homo sapiens, UniProt P29317). In words: Kinase selectivity profile. The class given is biochemical.
A further series deals with VEGFR-2 (Homo sapiens, UniProt P35968). In words: Kinase selectivity profile. Format: biochemical.
In the next series the target is MET (c-Met) (Homo sapiens, UniProt P08581). In words: Kinase selectivity profile. Format: biochemical.
Another series concerns the target RAF1 (CRAF) (Homo sapiens, UniProt P04049). The series is described as follows: Kinase selectivity profile. The class given is biochemical.
The target in another series is MST1R (RON) (Homo sapiens, UniProt Q04912). In words: Kinase selectivity profile. Format: biochemical.
For series [2], the system named is phosphor-MEK protein in A375 cell line. In words: Western blot of phosphor-MEK, A375. Format: cell-based, human. To be noted: A375, 48 h treatment. How it is done:
(§1) Total cells were harvested after treatment, washed twice with cold PBS, and lysed with RIPA lysis buffer (KeyGEN BioTECH, Nanjing, China) including 1% cocktail (Selleck Chemicals, Houston, TX, USA). Lysates were centrifuged at 12,000× g at 4 °C for 15 min, and the supernatant was collected. Total protein concentration was quantified using the bicinchoninic acid (BCA; Beyotime Institute of Biotechnology, Nanjing, China) protein assay kit (Sigma Chemical Co., St. Louis, MO, USA). The proteins were separated electrophoretically using 10% sodium dodecyl sulfate polyacrylamide gel electrophoresis (SDS-PAGE) and then the gel was transferred onto polyvinylidene fluoride (PVDF; Millipore, Billerica, MA, USA) membranes. […] The immunobands were detected with an enhanced chemiluminescence kit (Beyotime Institute of Biotechnology, Nanjing, China).

Series [3] relates to phosphor-MEK protein in HT-29 cell line. In words: Western blot of phosphor-MEK, HT-29. The class given is cell-based, human. To be noted: HT-29, 48 h treatment. How it is done: as §1
The target of the next series is FLT4 (VEGFR3) (Homo sapiens, UniProt P35916). In words: Kinase selectivity profile. The class given is biochemical.
For another series, the target named is ABL1 (Homo sapiens, UniProt P00519). The series is described as follows: Kinase selectivity profile. Format: biochemical.
In a further series the target is AURKA (Aurora A) (Homo sapiens, UniProt O14965). In words: Kinase selectivity profile. The class given is biochemical.
In the next series the target is ABL2 (Arg) (Homo sapiens, UniProt P42684). In words: Kinase selectivity profile. Format: biochemical.
Another series relates to A375 cell line. The series is described as follows: Flow cytometric analysis of cell cycle distribution. The conditions noted are these: for G0/G1 (%) / G2/M (%) / S (%) / Sub-G1 (%): 48 h. The class given is cell-based, human. How it is done:
The effect of compound 1v on cell cycle phase distribution of human malignant melanoma A375 was assessed using flow cytometry. When the cells grew to about 70% confluence in 6-well microplates, they were treated with compound 1v at given concentrations (6.11 μmol/L, 12.21 μmol/L, 24.42 μmol/L). After 48 h, cells were harvested by trypsinization, washed with PBS, and fixed in 70% ice cold (4 °C) ethanol overnight. They were then washed with PBS, incubated with Ribonuclease (RNase) ([…] final concentration) at 37 °C for 30 min, stained with propidium iodide ([…] final concentration), and analyzed by flow cytometry (BD FACS Canto II, BD Biosciences, San Jose, CA, USA).

The next series deals with PTK2 (FAK) (Homo sapiens, UniProt Q05397). The series is described as follows: Kinase selectivity profile. The class given is biochemical.
The target of the next series is ALK (Homo sapiens, UniProt Q9UM73). In words: Kinase selectivity profile. The class given is biochemical.
For a further series, the target named is LCK (Homo sapiens, UniProt P06239). The series is described as follows: Kinase selectivity profile. The class given is biochemical.
The target in a further series is BRAF (wt) (Homo sapiens, UniProt P15056). The series is described as follows: Kinase selectivity profile. The class given is biochemical.
The target of a further series is AURKB (Aurora B) (Homo sapiens, UniProt Q96GD4). The series is described as follows: Kinase selectivity profile. The class given is biochemical.
The target of a further series is FLT1 (VEGFR1) (Homo sapiens, UniProt P17948). The series is described as follows: Kinase selectivity profile. The class given is biochemical.
A further series addresses EGFR (ErbB1) (Homo sapiens, UniProt P00533). In words: Kinase selectivity profile. Format: biochemical.
The target in a further series is ErbB2 (HER2) (Homo sapiens, UniProt P04626). The series is described as follows: Kinase selectivity profile. Format: biochemical.
In a further series the target is ErbB4 (HER4) (Homo sapiens, UniProt Q15303). In words: Kinase selectivity profile. The class given is biochemical.
Another series addresses LTK (TYK1) (Homo sapiens, UniProt P29376). The series is described as follows: Kinase selectivity profile. Format: biochemical.
The mark [4] stands for this setting: average of two independent experiments.
Setting [5] is: 1000 nM, average of two independent experiments.

T1 sequence (P15056 whole entry V600E): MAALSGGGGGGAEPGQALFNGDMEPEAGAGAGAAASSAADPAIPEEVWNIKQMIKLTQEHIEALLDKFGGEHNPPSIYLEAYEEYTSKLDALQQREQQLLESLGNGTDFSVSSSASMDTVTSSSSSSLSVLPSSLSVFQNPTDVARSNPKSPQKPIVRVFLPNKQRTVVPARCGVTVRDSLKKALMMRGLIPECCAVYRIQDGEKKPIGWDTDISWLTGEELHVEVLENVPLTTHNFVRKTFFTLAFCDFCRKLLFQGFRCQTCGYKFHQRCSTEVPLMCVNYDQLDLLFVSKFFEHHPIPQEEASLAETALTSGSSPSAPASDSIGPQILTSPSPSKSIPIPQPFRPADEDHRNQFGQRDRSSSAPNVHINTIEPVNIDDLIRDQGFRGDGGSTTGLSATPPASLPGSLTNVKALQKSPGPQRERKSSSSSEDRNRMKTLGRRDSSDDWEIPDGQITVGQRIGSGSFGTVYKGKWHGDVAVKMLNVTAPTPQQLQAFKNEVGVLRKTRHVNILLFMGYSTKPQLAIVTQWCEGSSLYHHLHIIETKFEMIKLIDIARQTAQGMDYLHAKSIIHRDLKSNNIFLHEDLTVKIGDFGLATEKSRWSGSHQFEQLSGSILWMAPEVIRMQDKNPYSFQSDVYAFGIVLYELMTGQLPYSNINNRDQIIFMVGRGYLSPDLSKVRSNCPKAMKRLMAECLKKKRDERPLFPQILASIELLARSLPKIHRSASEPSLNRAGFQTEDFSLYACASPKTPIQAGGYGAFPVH
RAF1 (CRAF), sequence (P04049 342-648 limits assumed): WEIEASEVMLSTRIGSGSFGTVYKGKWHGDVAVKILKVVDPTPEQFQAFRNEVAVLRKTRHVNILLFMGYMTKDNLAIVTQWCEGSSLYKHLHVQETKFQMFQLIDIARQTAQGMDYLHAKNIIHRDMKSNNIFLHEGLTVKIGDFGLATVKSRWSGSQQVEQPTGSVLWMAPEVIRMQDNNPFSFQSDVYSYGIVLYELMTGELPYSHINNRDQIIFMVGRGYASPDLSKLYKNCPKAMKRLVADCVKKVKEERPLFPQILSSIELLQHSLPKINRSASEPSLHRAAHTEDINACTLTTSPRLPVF
BRAF (wt), sequence (P15056 whole entry): as the sequence (P15056 whole entry V600E) above, with E600V counted along it
ABL1, sequence (P00519 whole entry): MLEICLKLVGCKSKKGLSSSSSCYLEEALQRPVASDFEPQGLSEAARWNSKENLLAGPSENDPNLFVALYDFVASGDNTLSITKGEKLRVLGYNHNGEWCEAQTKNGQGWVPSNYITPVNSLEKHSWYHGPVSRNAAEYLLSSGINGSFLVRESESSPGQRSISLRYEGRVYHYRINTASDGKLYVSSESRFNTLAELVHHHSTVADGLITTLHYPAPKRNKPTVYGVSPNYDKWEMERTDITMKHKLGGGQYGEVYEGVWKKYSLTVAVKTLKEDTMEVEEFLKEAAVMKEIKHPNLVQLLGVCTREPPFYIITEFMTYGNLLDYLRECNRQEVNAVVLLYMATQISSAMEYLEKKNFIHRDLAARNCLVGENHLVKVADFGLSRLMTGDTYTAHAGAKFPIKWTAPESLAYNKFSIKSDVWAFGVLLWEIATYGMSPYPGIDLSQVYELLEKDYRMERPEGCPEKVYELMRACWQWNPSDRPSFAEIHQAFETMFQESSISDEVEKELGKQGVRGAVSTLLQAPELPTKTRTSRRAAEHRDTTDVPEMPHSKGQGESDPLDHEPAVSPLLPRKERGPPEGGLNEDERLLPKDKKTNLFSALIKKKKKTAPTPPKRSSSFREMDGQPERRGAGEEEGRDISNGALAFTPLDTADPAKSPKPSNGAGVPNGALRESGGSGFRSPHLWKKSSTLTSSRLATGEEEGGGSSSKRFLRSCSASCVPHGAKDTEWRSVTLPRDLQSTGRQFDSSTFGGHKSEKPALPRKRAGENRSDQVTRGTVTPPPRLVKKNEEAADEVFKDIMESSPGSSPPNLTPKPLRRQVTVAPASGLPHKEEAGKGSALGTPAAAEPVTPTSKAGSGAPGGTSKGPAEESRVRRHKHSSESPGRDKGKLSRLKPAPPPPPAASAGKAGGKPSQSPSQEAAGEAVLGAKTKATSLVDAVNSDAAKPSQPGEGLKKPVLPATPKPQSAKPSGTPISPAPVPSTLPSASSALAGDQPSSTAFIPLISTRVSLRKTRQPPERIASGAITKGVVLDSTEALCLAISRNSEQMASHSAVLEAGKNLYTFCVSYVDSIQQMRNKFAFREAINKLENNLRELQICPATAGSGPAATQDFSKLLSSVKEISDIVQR
PTK2 (FAK), sequence (Q05397 whole entry): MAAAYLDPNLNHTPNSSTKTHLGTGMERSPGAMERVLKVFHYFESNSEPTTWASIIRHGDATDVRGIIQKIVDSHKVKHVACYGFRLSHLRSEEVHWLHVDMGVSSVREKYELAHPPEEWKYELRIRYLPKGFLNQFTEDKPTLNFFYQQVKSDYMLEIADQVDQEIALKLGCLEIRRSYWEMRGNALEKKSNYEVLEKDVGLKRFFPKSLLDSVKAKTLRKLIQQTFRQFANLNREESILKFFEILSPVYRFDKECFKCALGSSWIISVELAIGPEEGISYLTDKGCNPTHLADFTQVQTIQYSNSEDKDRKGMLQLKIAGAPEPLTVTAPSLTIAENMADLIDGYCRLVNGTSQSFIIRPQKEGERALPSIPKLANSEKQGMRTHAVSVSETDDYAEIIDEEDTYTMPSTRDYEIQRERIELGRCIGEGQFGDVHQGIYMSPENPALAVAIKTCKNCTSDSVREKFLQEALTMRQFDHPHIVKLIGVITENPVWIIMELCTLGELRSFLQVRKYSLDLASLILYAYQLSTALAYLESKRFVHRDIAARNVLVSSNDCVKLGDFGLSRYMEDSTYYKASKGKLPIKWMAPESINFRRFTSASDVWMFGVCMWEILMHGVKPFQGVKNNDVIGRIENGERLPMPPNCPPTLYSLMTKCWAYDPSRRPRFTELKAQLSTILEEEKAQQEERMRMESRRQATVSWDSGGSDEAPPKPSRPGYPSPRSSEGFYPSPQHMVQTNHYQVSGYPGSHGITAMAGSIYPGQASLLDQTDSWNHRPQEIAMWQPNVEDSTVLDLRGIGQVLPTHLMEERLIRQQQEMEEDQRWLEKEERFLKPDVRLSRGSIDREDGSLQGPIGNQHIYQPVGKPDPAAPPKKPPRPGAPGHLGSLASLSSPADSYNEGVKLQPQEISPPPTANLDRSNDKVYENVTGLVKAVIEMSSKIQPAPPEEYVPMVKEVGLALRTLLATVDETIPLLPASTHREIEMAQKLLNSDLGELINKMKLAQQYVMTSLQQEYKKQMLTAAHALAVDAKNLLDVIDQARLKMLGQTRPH
MST1R (RON), sequence (Q04912 25-1400): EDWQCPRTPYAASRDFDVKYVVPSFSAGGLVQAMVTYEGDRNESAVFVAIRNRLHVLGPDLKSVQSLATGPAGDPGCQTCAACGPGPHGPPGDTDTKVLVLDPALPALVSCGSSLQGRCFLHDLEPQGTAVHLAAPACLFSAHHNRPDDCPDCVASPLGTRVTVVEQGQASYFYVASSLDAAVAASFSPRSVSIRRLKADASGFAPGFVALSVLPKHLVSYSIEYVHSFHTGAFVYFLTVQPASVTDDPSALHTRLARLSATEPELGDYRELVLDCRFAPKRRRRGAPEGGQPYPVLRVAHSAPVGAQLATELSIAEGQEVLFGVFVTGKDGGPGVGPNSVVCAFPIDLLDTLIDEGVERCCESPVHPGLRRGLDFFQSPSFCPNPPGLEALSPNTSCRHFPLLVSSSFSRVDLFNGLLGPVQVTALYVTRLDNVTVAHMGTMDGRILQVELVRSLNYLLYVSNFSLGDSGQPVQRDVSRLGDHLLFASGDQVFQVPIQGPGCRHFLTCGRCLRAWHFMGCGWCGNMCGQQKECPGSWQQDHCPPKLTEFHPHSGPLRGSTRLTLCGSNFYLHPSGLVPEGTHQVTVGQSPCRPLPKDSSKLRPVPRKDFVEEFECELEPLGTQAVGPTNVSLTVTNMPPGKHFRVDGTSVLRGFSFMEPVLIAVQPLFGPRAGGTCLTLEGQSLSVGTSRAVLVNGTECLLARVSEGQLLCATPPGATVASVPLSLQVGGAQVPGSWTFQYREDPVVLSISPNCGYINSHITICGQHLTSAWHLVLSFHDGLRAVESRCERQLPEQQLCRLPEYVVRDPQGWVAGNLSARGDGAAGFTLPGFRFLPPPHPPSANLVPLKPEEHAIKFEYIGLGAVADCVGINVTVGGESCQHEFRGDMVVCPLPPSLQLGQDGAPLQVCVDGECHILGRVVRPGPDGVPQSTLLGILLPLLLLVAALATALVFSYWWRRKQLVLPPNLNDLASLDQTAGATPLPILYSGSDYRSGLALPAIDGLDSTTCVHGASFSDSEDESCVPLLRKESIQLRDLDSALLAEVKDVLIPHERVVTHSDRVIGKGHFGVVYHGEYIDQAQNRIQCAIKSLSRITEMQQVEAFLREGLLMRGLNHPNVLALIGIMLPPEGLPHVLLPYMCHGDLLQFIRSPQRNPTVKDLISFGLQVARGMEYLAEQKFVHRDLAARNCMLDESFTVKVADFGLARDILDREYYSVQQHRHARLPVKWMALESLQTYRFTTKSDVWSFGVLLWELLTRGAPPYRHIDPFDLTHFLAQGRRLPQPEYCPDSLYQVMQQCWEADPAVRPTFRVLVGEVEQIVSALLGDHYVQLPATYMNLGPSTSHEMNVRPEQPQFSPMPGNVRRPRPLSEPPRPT
AURKA (Aurora A), sequence (O14965 whole entry): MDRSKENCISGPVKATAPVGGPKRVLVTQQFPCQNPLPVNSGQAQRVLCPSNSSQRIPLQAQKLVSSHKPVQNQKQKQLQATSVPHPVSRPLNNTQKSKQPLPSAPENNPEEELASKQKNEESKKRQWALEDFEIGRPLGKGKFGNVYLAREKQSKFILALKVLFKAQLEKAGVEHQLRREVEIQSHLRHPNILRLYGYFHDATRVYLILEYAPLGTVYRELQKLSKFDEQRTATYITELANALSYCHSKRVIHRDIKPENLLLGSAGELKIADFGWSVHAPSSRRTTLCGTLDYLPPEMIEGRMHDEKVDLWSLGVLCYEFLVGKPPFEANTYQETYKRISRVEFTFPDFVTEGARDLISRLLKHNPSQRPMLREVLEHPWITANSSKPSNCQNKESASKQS
Procedure for A549: as §2
Procedure for PC-3: as §2
Procedure for in vitro: as §2

On to `O=C(Nc1ccc(Oc2ncnc3[nH]ncc23)cc1)Nc1ccc(Cl)c(C(F)(F)F)c1` [Compound 1a, 1-(4-((1H-Pyrazolo[3,4-d]pyrimidin-4-yl)oxy)phenyl)-3-(4-chloro-3-(trifluoromet-hyl)phenyl)urea], for which the IC50 at 48 h in “in vitro” was 17.8 µM. On BRAF^V600E (setting [4]), the inhibition at 0.1 µM was found to be 37%. The same compound yielded an inhibition at 1 µM against BRAF^V600E (setting [5]) of 90%. For the same compound, the IC50 with PC-3 is 19.5 µM; in the series with HT-29 it was more than 80 µM; with A549 it was 19.8 µM; with A375 it was 29.3 µM.

For the compound `O=C(Nc1ccccc1)Nc1ccc(Oc2ncnc3[nH]ncc23)cc1` [Compound 1e, 1-(4-((1H-Pyrazolo[3,4-d]pyrimidin-4-yl)oxy)phenyl)-3-phenylurea], the melting point is 247.3 to 249.2 °C. Further, the IC50 at 48 h in “in vitro” is more than 80 µM. On BRAF^V600E (setting [5]), the “BRAF^V600E (%) inhibition at 1000 nM” value is recorded as “no inhibitory activity” and the inhibition at 1 µM amounted to 1%. Moreover, the IC50 with PC-3 is more than 80 µM. In the series on HT-29, the IC50 is more than 80 µM. Further, in the series with A549, the IC50 is more than 80 µM. This compound returned an IC50 in the series with A375 of more than 80 µM.

`Cc1cccc(NC(=O)Nc2ccc(Oc3ncnc4[nH]ncc34)cc2)c1C` [Compound 1h, 1-(4-((1H-Pyrazolo[3,4-d]pyrimidin-4-yl)oxy)phenyl)-3-(2,3-dimethylphenyl)urea] came in with a melting point of 250.4 to 252.3 °C. The compound also came in with an IC50 at 48 h in the series “in vitro” of more than 80 µM. For the same compound, the inhibition at 1 µM on BRAF^V600E (setting [5]) came to 27%. Also, in the series with PC-3, the IC50 came out at 11.7 µM. Moreover, the IC50 with HT-29 was more than 80 µM. Moreover, in the series on A549, the IC50 was more than 80 µM. The compound further had an IC50 in the series on A375 of more than 80 µM.

The compound `Cn1ncc2c(Oc3ccc(NC(=O)Nc4cccc(Cl)c4)cc3)ncnc21` [Compound 1u, 1-(3-Chlorophenyl)-3-(4-((1-methyl-1H-pyrazolo[3,4-d]pyrimidin-4-yl)oxy)phenyl)urea] registered a melting point of 309.8 to 312 °C. The IC50 at 48 h in series [1] is more than 80 µM. Further, at BRAF^V600E (setting [4]), testing at 0.1 µM gave an inhibition of 61%. Besides, on BRAF^V600E (setting [5]), 1 µM produced 93% inhibition. Also, half-maximal inhibition at BRAF^V600E (IC50) required 0.0381 µM. For the same compound, the IC50 in the series with PC-3 was 68.9 µM. Further, the IC50 in the series with HT-29 is more than 80 µM. Besides, in the series with A549, the IC50 is more than 80 µM. The IC50 in the series with A375 worked out at 13.2 µM.

Regarding `Cn1ncc2c(Oc3ccc(NC(=O)Nc4ccc(Cl)c(C(F)(F)F)c4)cc3)ncnc21` [Compound 1v, 1-(4-Chloro-3-(trifluoromethyl)phenyl)-3-(4-((1-methyl-1H-pyrazolo[3,4-d]pyrimidin-4-yl)oxy)phenyl)urea], the melting point lay within 212.1 to 213 °C. In addition, on EPHA2, the “Inhibition % at 1 μΜ, EPHA2” value stood at 2%. Further, the “Inhibition % at 1 μΜ, VEGFR-2” value at VEGFR-2 came to 56%. For the same compound, the “Inhibition % at 1 μΜ, MET (c-Met)” value at MET (c-Met) stood at 6%. Moreover, the “Inhibition % at 1 μΜ, RAF1 (CRAF)” value at RAF1 (CRAF) (1 μΜ) amounted to 102%. Also, on RAF1 (CRAF) (in parentheses in Table 4, read-out: C-RAF IC50), the IC50 worked out at 0.0085 µM. The “Inhibition % at 1 μΜ, MST1R (RON)” value at MST1R (RON) is recorded as −2%. Besides, the “phosphor-MEK levels (western blot)” value in series [2] is given as “suppressed phosphor-MEK levels in a concentration-dependent manner”. In addition, the “phosphor-MEK levels (western blot)” value in series [3] was “suppressed phosphor-MEK levels in a concentration-dependent manner”. The “Inhibition % at 1 μΜ, FLT4 (VEGFR3)” value on FLT4 (VEGFR3) was determined as 58%. Further, the “Inhibition % at 1 μΜ, ABL1” value at ABL1 was found to be 5%. At AURKA (Aurora A), the “Inhibition % at 1 μΜ, AURKA (Aurora A)” value was 17%. Also, the “Inhibition % at 1 μΜ, ABL2 (Arg)” value on ABL2 (Arg) is reported as 4%. In [1], this compound returned an IC50 at 48 h of more than 80 µM. Besides, in the series on A375 cell line (A375, 6.11 μmol/L), the “G0/G1 (%)” value is given as 42.53%, the “G2/M (%)” value is reported as 10.94%, the “S (%)” value was 38.25% and the “Sub-G1 (%)” value is recorded as 4.39%. In the series on A375 cell line (A375, 12.21 μmol/L), the “G0/G1 (%)” value worked out at 47.94%, the “G2/M (%)” value is recorded as 7.39%, the “S (%)” value amounted to 38.13% and the “Sub-G1 (%)” value came to 2.12%. In the series with A375 cell line (A375, 24.42 μmol/L), the “G0/G1 (%)” value is listed as 52.73%, the “G2/M (%)” value was 5.48%, the “S (%)” value stood at 36.19% and the “Sub-G1 (%)” value is given as 5.48%. Further, the “effect on cell cycle progression” value in the series with A375 cell line (A375, 48 h, G0/G1 phase) was “dose-dependent cell cycle arrest”. For the same compound, the “Inhibition % at 1 μΜ, PTK2 (FAK)” value on PTK2 (FAK) is 13%. For the same compound, at BRAF^V600E (setting [4]), 0.1 µM produced 81% inhibition. Moreover, the inhibition at 1 µM against BRAF^V600E (setting [5]) came out at 97%. This compound also showed an IC50 against BRAF^V600E of 0.0236 µM. For the same compound, the IC50 in the series on PC-3 came to 23.4 µM. Further, the “Inhibition % at 1 μΜ, ALK” value at ALK is 7%. The “Inhibition % at 1 μΜ, LCK” value on LCK came to 20%. Moreover, at BRAF (wt) (1 μΜ), the “Inhibition % at 1 μΜ, BRAF (wt)” value is recorded as 105%. The IC50 on BRAF (wt) (in parentheses in Table 4, read-out: wild-type BRAF IC50) is 0.0515 µM. In addition, the “Inhibition % at 1 μΜ, AURKB (Aurora B)” value on AURKB (Aurora B) worked out at 42%. In addition, the “Inhibition % at 1 μΜ, FLT1 (VEGFR1)” value on FLT1 (VEGFR1) turned out to be 31%. In addition, the “Inhibition % at 1 μΜ, EGFR (ErbB1)” value on EGFR (ErbB1) worked out at 8%. Besides, the “Inhibition % at 1 μΜ, ErbB2 (HER2)” value at ErbB2 (HER2) was −7%. In addition, the “Inhibition % at 1 μΜ, ErbB4 (HER4)” value on ErbB4 (HER4) is 7%. Also, the midpoint of inhibition with HT-29, the IC50, lay at 14.7 µM. The IC50 with A549 is 12.5 µM. Further, the “Inhibition % at 1 μΜ, LTK (TYK1)” value on LTK (TYK1) is on record as 3%. This compound also had an IC50 in the series on A375 of 12.2 µM.
